# Experiment: Stability of itampolin A in biological samples under different storage conditions
# Assay type: physicochemical, rat
# Conditions: n = 5, in %
# Method: The stability of itampolin A was investigated by analyzing five replicates of the samples at three QC levels (3, 40, and 1280 ng/mL) under different storage conditions: (1) 4 h exposure at room temperature, (2) 24 h storage in the autosampler at 4 °C, (3) three freeze–thaw cycles, and (4) storage at −80 °C for 30 days. The samples were considered stable if the average percentage concentration deviation was within 15% of the actual value.
smiles,measurement,setting,value
"COc1c(Br)cc(C[C@H](NC(=O)Cc2ccc(OCCCNC(C)=O)cc2)C(=O)NCCc2cc(Br)c(O)c(Br)c2)cc1Br [itampolin A, Itampolin A]","Stability, Autosampler 4 °C for 24 h","brain, spiked 3 ng/mL",98.3 ± 5.8
same,"Stability, Long-Term (at −80 °C for 30 Days)","brain, spiked 3 ng/mL",94.3 ± 8.7
same,"Stability, Short-Term (at Room Temperature for 4 h)","brain, spiked 3 ng/mL",112.6 ± 3.9
same,"Stability, Three Freeze–Thaw Cycles","brain, spiked 3 ng/mL",99.5 ± 6.3
same,"Stability, Autosampler 4 °C for 24 h","brain, spiked 40 ng/mL",108.0 ± 4.0
same,"Stability, Long-Term (at −80 °C for 30 Days)","brain, spiked 40 ng/mL",95.0 ± 2.9
same,"Stability, Short-Term (at Room Temperature for 4 h)","brain, spiked 40 ng/mL",99.9 ± 10.9
same,"Stability, Three Freeze–Thaw Cycles","brain, spiked 40 ng/mL",93.7 ± 7.8
same,"Stability, Autosampler 4 °C for 24 h","brain, spiked 1280 ng/mL",96.8 ± 8.3
same,"Stability, Long-Term (at −80 °C for 30 Days)","brain, spiked 1280 ng/mL",94.6 ± 5.7
same,"Stability, Short-Term (at Room Temperature for 4 h)","brain, spiked 1280 ng/mL",99.7 ± 2.9
same,"Stability, Three Freeze–Thaw Cycles","brain, spiked 1280 ng/mL",104.3 ± 2.6
same,"Stability, Autosampler 4 °C for 24 h","heart, spiked 3 ng/mL",87.2 ± 7.2
same,"Stability, Long-Term (at −80 °C for 30 Days)","heart, spiked 3 ng/mL",103.3 ± 6.8
same,"Stability, Short-Term (at Room Temperature for 4 h)","heart, spiked 3 ng/mL",97.7 ± 3.6
same,"Stability, Three Freeze–Thaw Cycles","heart, spiked 3 ng/mL",94.3 ± 6.5
same,"Stability, Autosampler 4 °C for 24 h","heart, spiked 40 ng/mL",103.9 ± 3.5
same,"Stability, Long-Term (at −80 °C for 30 Days)","heart, spiked 40 ng/mL",97.4 ± 5.3
same,"Stability, Short-Term (at Room Temperature for 4 h)","heart, spiked 40 ng/mL",100.3 ± 2.6
same,"Stability, Three Freeze–Thaw Cycles","heart, spiked 40 ng/mL",108.3 ± 9.7
same,"Stability, Autosampler 4 °C for 24 h","heart, spiked 1280 ng/mL",94.0 ± 7.3
same,"Stability, Long-Term (at −80 °C for 30 Days)","heart, spiked 1280 ng/mL",95.3 ± 5.4
same,"Stability, Short-Term (at Room Temperature for 4 h)","heart, spiked 1280 ng/mL",89.3 ± 5.3
same,"Stability, Three Freeze–Thaw Cycles","heart, spiked 1280 ng/mL",98.9 ± 4.9
same,"Stability, Autosampler 4 °C for 24 h","intestine, spiked 3 ng/mL",99.5 ± 5.3
same,"Stability, Long-Term (at −80 °C for 30 Days)","intestine, spiked 3 ng/mL",96.3 ± 7.9
same,"Stability, Short-Term (at Room Temperature for 4 h)","intestine, spiked 3 ng/mL",100.1 ± 6.1
same,"Stability, Three Freeze–Thaw Cycles","intestine, spiked 3 ng/mL",108.7 ± 2.9
same,"Stability, Autosampler 4 °C for 24 h","intestine, spiked 40 ng/mL",106.4 ± 8.9
same,"Stability, Long-Term (at −80 °C for 30 Days)","intestine, spiked 40 ng/mL",85.9 ± 7.4
same,"Stability, Short-Term (at Room Temperature for 4 h)","intestine, spiked 40 ng/mL",101.3 ± 2.3
same,"Stability, Three Freeze–Thaw Cycles","intestine, spiked 40 ng/mL",98.3 ± 5.0
same,"Stability, Autosampler 4 °C for 24 h","intestine, spiked 1280 ng/mL",102.3 ± 4.1
same,"Stability, Long-Term (at −80 °C for 30 Days)","intestine, spiked 1280 ng/mL",89.0 ± 7.9
same,"Stability, Short-Term (at Room Temperature for 4 h)","intestine, spiked 1280 ng/mL",99.7 ± 3.3
same,"Stability, Three Freeze–Thaw Cycles","intestine, spiked 1280 ng/mL",107.5 ± 8.2
same,"Stability, Autosampler 4 °C for 24 h","kidney, spiked 3 ng/mL",93.0 ± 8.9
same,"Stability, Long-Term (at −80 °C for 30 Days)","kidney, spiked 3 ng/mL",89.1 ± 7.1
same,"Stability, Short-Term (at Room Temperature for 4 h)","kidney, spiked 3 ng/mL",98.6 ± 4.0
same,"Stability, Three Freeze–Thaw Cycles","kidney, spiked 3 ng/mL",97.1 ± 6.7
same,"Stability, Autosampler 4 °C for 24 h","kidney, spiked 40 ng/mL",100.7 ± 7.6
same,"Stability, Long-Term (at −80 °C for 30 Days)","kidney, spiked 40 ng/mL",97.3 ± 8.5
same,"Stability, Short-Term (at Room Temperature for 4 h)","kidney, spiked 40 ng/mL",106.8 ± 7.3
same,"Stability, Three Freeze–Thaw Cycles","kidney, spiked 40 ng/mL",98.4 ± 5.0
same,"Stability, Autosampler 4 °C for 24 h","kidney, spiked 1280 ng/mL",92.7 ± 4.2
same,"Stability, Long-Term (at −80 °C for 30 Days)","kidney, spiked 1280 ng/mL",110.4 ± 5.9
same,"Stability, Short-Term (at Room Temperature for 4 h)","kidney, spiked 1280 ng/mL",99.8 ± 8.1
same,"Stability, Three Freeze–Thaw Cycles","kidney, spiked 1280 ng/mL",98.8 ± 3.6
same,"Stability, Autosampler 4 °C for 24 h","liver, spiked 3 ng/mL",96.3 ± 8.2
same,"Stability, Long-Term (at −80 °C for 30 Days)","liver, spiked 3 ng/mL",93.7 ± 5.1
same,"Stability, Short-Term (at Room Temperature for 4 h)","liver, spiked 3 ng/mL",98.2 ± 7.5
same,"Stability, Three Freeze–Thaw Cycles","liver, spiked 3 ng/mL",103.3 ± 4.7
same,"Stability, Autosampler 4 °C for 24 h","liver, spiked 40 ng/mL",98.8 ± 4.8
same,"Stability, Long-Term (at −80 °C for 30 Days)","liver, spiked 40 ng/mL",87.1 ± 6.8
same,"Stability, Short-Term (at Room Temperature for 4 h)","liver, spiked 40 ng/mL",93.5 ± 2.5
same,"Stability, Three Freeze–Thaw Cycles","liver, spiked 40 ng/mL",96.4 ± 8.1
same,"Stability, Autosampler 4 °C for 24 h","liver, spiked 1280 ng/mL",113.6 ± 4.2
same,"Stability, Long-Term (at −80 °C for 30 Days)","liver, spiked 1280 ng/mL",97.9 ± 5.2

# Source: paper PMC11173508, “Pharmacokinetics and Tissue Distribution of Itampolin A following Intragastric and Intravenous Administration in Rats Using Ultra-High-Performance Liquid Chromatography–Tandem Mass Spectrometry” (Molecules, 2024)
